Results reported in patent US9492368B2, “External preparation for skin” (HAYASHIBARA CO., LTD., priority 2011, dated 2016).
Marks after values point to notes of the source that are not given here.

Key:
[1] = system: NHDF cells; assay: Collagen production by NHDF cells (Sircol collagen assay); type: cell-based, human; conditions: three days
From the text: For the anti-wrinkle action of glucosyladenosines, the effect of glucosyladenosines on the collagen production in the dermis was examined as follows using a normal human fetal fibroblast (NHDF) commonly used for evaluating agents for enhancing collagen production in the skin. […] Thereafter, the culture supernatant in each well was removed by aspiration, and the resulting cells were washed with phosphate buffered saline (PBS), and admixed with pepsin, commercialized by Sigma-Aldrich Co. LLC., Missouri, USA, which had been diluted with 1 M acetic acid to give a concentration of 1 mg/ml, in a volume of 250 μl/well. The resulting plates were shaken at ambient temperature for four hours, and the cells adhered to the wells were detached therefrom with a cell scraper and subjected to pipetting, followed by collecting the resulting cell suspension after the pepsin digestion into “EPPENDORF TUBE”, a product name of a 1.5 ml microtube, commercialized by Eppendorf AG, Hamburg, Germany. “Sicrol Collagen Assay Kit”, a product name of a developing color reagent for quantifying collagen, commercialized by Biocolor, CA, USA, was added to the tubes in a volume of 500 μl/tube, mixed with a vortex mixer, kneaded by allowing the tubes upside-down at an ambient temperature for exact 30 min using “RT-50”, a product name of a rotator commercialized by TAITEC Corporation, Saitama, Japan, and centrifuged (1,500 rpm) at 4° C. for 10 min to remove supernatants. The resulting sediments were admixed with 1 N NaOH in a volume of 100 μl/tube and dissolved by pipetting. The resulting solutions were all transferred to “FALCON MICROTEST™96”, a product name of a 96-well microplate commercialized by Becton, Dickinson and Company, NJ, USA, and measured for absorbance (A560-A650) on “Vmax Microplate Reader”, a product name of an absorption spectrometer commercialized by Molecular Devices Corporation, CA, USA. The collagen level in each well was determined based on a standard curve prepared by using type I collagen commercialized by KOKEN Co., Ltd., Tokyo, Japan, and the data are shown in Table 6 in parallel.

[2] = system: profilaggrin; assay: Differentiation of keratinocytes: profilaggrin protein expression in NHEK cells by western blotting; type: cell-based, human; conditions: eight days, relative to no addition = 1
From the text: For the anti-wrinkle action of glucosyladenosines, the effect of glucosyladenosines on keratinocytes in the skin was examined as follows using normal human epidermal keratinocytes commonly used for evaluating accelerators for differentiating keratinocytes in the skin. Using normal human epidermal keratinocytes (derived from human newborn and commercialized by Kurabo Industries Ltd., Okayama, Japan, and abbreviated as “NHEK cells”, hereinafter), the effects of glucosyladenosines on the differentiation of keratinocytes was evaluated by comparing the expression level of profilaggrin, as a marker protein of cells in the granular layer, which is specifically expressed in the cells when keratinocytes differentiate into the cells from those in the basal lamina and which is determined by the western blotting method using an antibody specific to the marker protein. In this experiment, the increment of profilaggrin means that cells in the granular layer have been increased as a result of accelerating the differentiation of keratinocytes in the basal lamina.
NHEK Cells, which had been suspended in EpiLife medium, commercialized by Caskade Biologics Inc., Oregon, USA, containing EDGS (EpiLife Defined Growth Supplement) (abbreviated as “EpiLife medium containing EDGS”, hereinafter), were inoculated to “FALCON MULTI-WELL™ 6WELL”, 6-well plate, commercialized by Becton, Dickinson and Co., NJ, USA, which had been coated with “Cellmatorix Type IV”, a product name of collagen, commercialized by Nitta Gelatin Inc., Osaka, Japan, in a cell amount of 5×10^5 cells/1.5 ml/well; and cultured at 37° C. for two days under a 5 v/v % CO2 condition. […] As control 1, adenosine was diluted with EpiLife medium to give a final concentration of 0.1 μM, 1 μM or 10 μM, and the dilution was added to the plates in a volume of 1.5 ml/well. As control 2, EpiLife medium was only added to plates in a volume of 1.5 ml/well. Thereafter, the cells were incubated for eight days while replacing the medium in each well with a fresh preparation of the same medium as added initially every other day. The culture medium in each well was removed by aspiration, and the resulting cells were washed by adding PBS, followed by adding an extraction buffer to the cells in a volume of 100 μl/well, detaching the cells from each well with a cell scraper, and collecting the cells in “EPPENDORF TUBE”, a product name of a 1.5 ml microtube, commercialized by Eppendorf AG, Hamburg, Germany. The collected cells were mixed by a vortex mixer, suspended, allowed to stand over ice for 30 min, and centrifuged at 15,000×g for 10 min at 4° C. to collect a supernatant for use as a sample for analysis. 20 mM Tris-HCl buffer (pH 8.0) containing 2% by mass of sodium dodecyl sulfate (SDS), 1 mM edetic acid, 20 μM phenylmethylsulfonyl fluoride (PMSF), 20 μM leupeptin, and 0.1 μM aprotinin was used as an extraction buffer.
Twelve microliters of the above sample for analysis was added to eight micriloters of 2.5 w/v % SDS aqueous solution containing 5 v/v % dithiothreitol (DTT), and the mixture was in usual manner subjected to SDS-polyacrylamide gel electrophoresis after charged on an SDS-polyacrylamide gel in an amount of 20 μg protein per lane. After completing the electrophoresis, proteins contained in the gel were in usual manner transferred to a nitrocellulose membrane, which was then soaked in “BlockAce”, a product name of a blocking solution commercialized by Dainippon Sumitomo Pharma Co., Ltd., Osaka, Japan, to inhibit non-specific reactions. […]

Nc1ncnc2c1ncn2[C@@H]1O[C@H](CO)[C@@H](O[C@H]2O[C@H](CO)[C@@H](O)[C@H](O)[C@H]2O)[C@H]1O [3′-Glucosyladenosine, α-D-glucopyranosyl-(1→3′)-adenosine]
Collagen production level ([1]; 5 μM in medium): 3.39* μg/well
Collagen production level ([1]; 10 μM in medium): 4.37** μg/well
Expression level of profilaggrin ([2]; 0.1 μM in medium): 1.6*
Expression level of profilaggrin ([2]; 1 μM in medium): 2.4**
Expression level of profilaggrin ([2]; 10 μM in medium): 2.0**

Nc1ncnc2c1ncn2[C@@H]1O[C@H](CO[C@H]2O[C@H](CO)[C@@H](O)[C@H](O)[C@H]2O)[C@@H](O)[C@H]1O [5′-Glucosyladenosine, α-D-glucopyranosyl-(1→5′)-adenosine]
Collagen production level ([1]; 5 μM in medium): 3.53* μg/well
Collagen production level ([1]; 10 μM in medium): 4.54** μg/well
Expression level of profilaggrin ([2]; 0.1 μM in medium): 2.1*
Expression level of profilaggrin ([2]; 1 μM in medium): 3.8**
Expression level of profilaggrin ([2]; 10 μM in medium): 2.8**

Nc1ncnc2c1ncn2[C@@H]1O[C@H](CO)[C@@H](O)[C@H]1O [Adenosine, reference compound]
Collagen production level ([1]; 5 μM in medium): 2.61 μg/well
Collagen production level ([1]; 10 μM in medium): 3.02* μg/well
Expression level of profilaggrin ([2]; 0.1 μM in medium): 1.1
Expression level of profilaggrin ([2]; 1 μM in medium): 1.2
Expression level of profilaggrin ([2]; 10 μM in medium): 0.9
